What was measured:
[1] = target: T1, Alpha-2C adrenergic receptor (Homo sapiens, UniProt P18825); experiment: DRUGMATRIX: Adrenergic Alpha-2C radioligand binding (ligand: [3H] MK-912); assay type: cell membranes, Sf9, Membrane; conditions: for Ki: read-out: Ki
T1 sequence (P18825 whole entry): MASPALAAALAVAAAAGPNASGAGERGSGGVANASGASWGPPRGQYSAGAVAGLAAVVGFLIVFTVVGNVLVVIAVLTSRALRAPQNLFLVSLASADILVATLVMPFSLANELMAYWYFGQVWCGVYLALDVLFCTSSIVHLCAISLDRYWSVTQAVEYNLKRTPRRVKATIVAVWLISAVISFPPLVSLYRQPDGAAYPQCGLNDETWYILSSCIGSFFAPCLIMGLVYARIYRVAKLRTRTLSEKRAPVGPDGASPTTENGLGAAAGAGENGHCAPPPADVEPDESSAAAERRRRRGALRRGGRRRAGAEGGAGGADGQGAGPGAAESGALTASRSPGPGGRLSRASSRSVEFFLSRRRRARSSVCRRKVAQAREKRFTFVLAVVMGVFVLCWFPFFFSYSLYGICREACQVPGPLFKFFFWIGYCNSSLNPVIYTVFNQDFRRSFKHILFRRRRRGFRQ

[2] = DRUGMATRIX: Calcium Channel Type L, Benzothiazepine radioligand binding (ligand: [3H] Diltiazem); assay type: cell membranes, Rattus norvegicus, Wistar, Brain, Membrane; conditions: Not Active = under 50% inhibition at 10 µM
[3] = target: T2, Interstitial collagenase (Homo sapiens, UniProt P03956); experiment: biochemical; assay type: tissue-based, Rheumatoid synovial fibroblasts;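 further: MMP-1 enzyme inhibition assay using a peptide substrate; in other assays of this panel Not Active means under 50% inhibition at 10 µM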
T2 sequence (P03956 whole entry): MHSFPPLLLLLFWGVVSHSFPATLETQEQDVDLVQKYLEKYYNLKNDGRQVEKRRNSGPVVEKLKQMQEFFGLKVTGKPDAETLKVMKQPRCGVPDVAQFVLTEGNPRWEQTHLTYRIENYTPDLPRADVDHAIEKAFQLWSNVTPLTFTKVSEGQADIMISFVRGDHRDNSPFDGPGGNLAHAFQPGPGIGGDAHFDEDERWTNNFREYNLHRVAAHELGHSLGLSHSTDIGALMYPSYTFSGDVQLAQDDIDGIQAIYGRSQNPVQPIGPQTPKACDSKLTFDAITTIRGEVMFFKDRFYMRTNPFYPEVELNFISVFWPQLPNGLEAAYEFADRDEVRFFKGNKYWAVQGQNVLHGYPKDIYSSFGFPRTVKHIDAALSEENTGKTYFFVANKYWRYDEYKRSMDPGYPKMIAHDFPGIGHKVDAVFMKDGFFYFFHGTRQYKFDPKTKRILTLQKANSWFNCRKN

[4] = target: T3, Calcitonin receptor (Homo sapiens, UniProt P30988); assay type: cell membranes, Membrane; conditions: t47d; further: in other assays of this panel Not Active means under 50% inhibition at 10 µM
T3 sequence (P30988 whole entry): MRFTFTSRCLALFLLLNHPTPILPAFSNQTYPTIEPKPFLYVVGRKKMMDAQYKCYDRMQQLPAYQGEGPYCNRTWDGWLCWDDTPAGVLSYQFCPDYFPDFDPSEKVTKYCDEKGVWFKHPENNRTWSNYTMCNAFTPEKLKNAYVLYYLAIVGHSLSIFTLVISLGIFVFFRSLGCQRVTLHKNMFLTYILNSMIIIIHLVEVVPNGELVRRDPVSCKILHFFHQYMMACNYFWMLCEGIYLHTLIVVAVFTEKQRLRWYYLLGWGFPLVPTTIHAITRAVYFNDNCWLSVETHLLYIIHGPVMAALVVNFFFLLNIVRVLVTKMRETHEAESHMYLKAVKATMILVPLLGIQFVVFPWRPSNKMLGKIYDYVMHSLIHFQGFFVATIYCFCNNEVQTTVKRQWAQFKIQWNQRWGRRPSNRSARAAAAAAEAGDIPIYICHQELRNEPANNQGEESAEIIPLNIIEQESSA

[5] = DRUGMATRIX: Calcium Channel Type L, Phenylalkylamine radioligand binding (ligand: [3H] (-)-Desmethoxyverapamil (D-888)); assay type: cell membranes, Rattus norvegicus, Wistar, Brain, Membrane; conditions: Not Active = under 50% inhibition at 10 µM

SMILES	IC50 ([1]; sf9)	IC50 [2]	Ki [2]	IC50 [3]	IC50 [4]	IC50 [5]	Ki [5]	IC50 ([1]; read-out: IC50) [nM]	Ki [1] [nM]	IC50 ([2]; read-out: IC50) [nM]	Ki ([2]; read-out: Ki) [nM]	IC50 ([5]; read-out: IC50) [nM]	Ki ([5]; read-out: Ki) [nM]
CCn1cc(C(=O)O)c(=O)c2cc(F)c(N3CCNCC3)cc21 [NORFLOXACIN]	Not Active	Not Active	Not Active	Not Active	Not Active	Not Active	Not Active						
CCC1(c2ccc(N)cc2)CCC(=O)NC1=O (stereo not given) [AMINOGLUTETHIMIDE]	Not Active	Not Active	Not Active	Not Active	Not Active	Not Active	Not Active						
Cc1ccc(/N=C/N(C)/C=N/c2ccc(C)cc2C)c(C)c1 [AMITRAZ]	Not Active	Not Active	Not Active	Not Active	Not Active	Not Active	Not Active						
CNNCc1ccc(C(=O)NC(C)C)cc1 [PROCARBAZINE]	Not Active	Not Active	Not Active	Not Active	Not Active	Not Active	Not Active						
CN(C)c1nc(N(C)C)nc(N(C)C)n1 [ALTRETAMINE]	Not Active	Not Active	Not Active	Not Active	Not Active	Not Active	Not Active						
OC(Cn1cncn1)(Cn1cncn1)c1ccc(F)cc1F [FLUCONAZOLE]	Not Active	Not Active	Not Active	Not Active	Not Active	Not Active	Not Active						
C[C@]12CCC(=O)C=C1CC[C@@H]1[C@@H]2CC[C@@]2(C)[C@H]1CC[C@]2(C)O [METHYLTESTOSTERONE]	Not Active	Not Active	Not Active	Not Active	Not Active	Not Active	Not Active						
O=c1oc2ccccc2c(O)c1Cc1c(O)c2ccccc2oc1=O [DICUMAROL]	Not Active	Not Active	Not Active	Not Active	Not Active	Not Active	Not Active						
N=C(N)NCCN1CCCCCCC1 [GUANETHIDINE]	Not Active	Not Active	Not Active	Not Active	Not Active	Not Active	Not Active						
Cc1cc(C2CCCCC2)n(O)c(=O)c1 [CICLOPIROX]	Not Active	Not Active	Not Active	Not Active	Not Active	Not Active	Not Active						
CCOc1ccc(NC(C)=O)cc1 [PHENACETIN]	Not Active	Not Active	Not Active	Not Active	Not Active	Not Active	Not Active						
NC1=NC(=O)C(c2ccccc2)O1 (stereo not given) [PEMOLINE]	Not Active	Not Active	Not Active	Not Active	Not Active	Not Active	Not Active						
C[C@H](CCC(=O)O)[C@H]1CC[C@H]2[C@@H]3[C@H](O)C[C@@H]4C[C@H](O)CC[C@]4(C)[C@H]3C[C@H](O)[C@]12C [CHOLIC ACID]	Not Active	Not Active	Not Active	Not Active	Not Active	Not Active	Not Active						
CC(C)C(Br)C(=O)NC(N)=O (stereo not given) [BROMISOVALUM]	Not Active	Not Active	Not Active	Not Active	Not Active	Not Active	Not Active						
C[C@H]1c2cccc(O)c2C(=O)C2=C(O)[C@]3(O)C(=O)C(C(N)=O)=C(O)[C@@H](N(C)C)[C@@H]3[C@@H](O)[C@@H]21.O [DOXYCYCLINE]	Not Active	Not Active	Not Active	Not Active	Not Active	Not Active	Not Active						
CNCCCN1c2ccccc2CCc2ccccc21 [DESIPRAMINE]	Not Active	Not Active	Not Active	Not Active	Not Active	Not Active	Not Active						
C[C@H](CS)C(=O)N1CCC[C@H]1C(=O)O [CAPTOPRIL]	Not Active	Not Active	Not Active	Not Active	Not Active	Not Active	Not Active						
CC(O)CO (stereo not given) [PROPYLENE GLYCOL]	Not Active	Not Active	Not Active	Not Active	Not Active	Not Active	Not Active						
Cc1c(O)c(=O)ccn1C [DEFERIPRONE]	Not Active	Not Active	Not Active	Not Active	Not Active	Not Active	Not Active						
CC(C)[C@@]1(NC(=O)[C@@H]2C[C@@H]3c4cccc5[nH]cc(c45)C[C@H]3N(C)C2)O[C@@]2(O)[C@@H]3CCCN3C(=O)[C@H](Cc3ccccc3)N2C1=O.CS(=O)(=O)O [DIHYDROERGOCRISTINE MESYLATE]		Not Active	Not Active	Not Active	Not Active	Not Active	Not Active	8.65	1.26				
C1CCC(C(CC2CCCCN2)C2CCCCC2)CC1 (stereo not given) [PERHEXILINE]	Not Active			Not Active	Not Active					1060	939	1350	1310
c1ccc2c(c1)c1cccc3ccc4cccc2c4c31 [BENZO[E]PYRENE]	Not Active	Not Active	Not Active	Not Active	Not Active	Not Active	Not Active						
C[C@]12CC[C@@H]3c4ccc(O)cc4CC[C@H]3[C@@H]1CCC2=O [ESTRONE]	Not Active	Not Active	Not Active	Not Active	Not Active	Not Active	Not Active						
CNCCc1ccccn1 [BETAHISTINE]	Not Active	Not Active	Not Active	Not Active	Not Active	Not Active	Not Active						
Cc1ccccc1N1C(=O)c2cc(S(N)(=O)=O)c(Cl)cc2NC1C (stereo not given) [METOLAZONE]	Not Active	Not Active	Not Active	Not Active	Not Active	Not Active	Not Active						
O=C1CC[C@@H](N2C(=O)c3ccccc3C2=O)C(=O)N1	Not Active	Not Active	Not Active	Not Active	Not Active	Not Active	Not Active						
Nc1c(Br)cc(Br)cc1CN[C@H]1CC[C@H](O)CC1 [AMBROXOL]	Not Active	Not Active	Not Active	Not Active	Not Active	Not Active	Not Active						
Nc1nc2c(ncn2COCCO)c(=O)[nH]1 [ACYCLOVIR]	Not Active	Not Active	Not Active	Not Active	Not Active	Not Active	Not Active						
CN(C)CCCN1c2ccccc2Sc2ccccc21 [PROMAZINE]				Not Active	Not Active			253	37	3220	2860	1190	1160
